Test [1] in a line: Inhibition of Saccharomyces cerevisiae alpha-glucosidase assessed as reduction in PNP formation using alpha-PNPG as substrate incubated for 30 mins.
Test [2] can be described thus: Inhibition of Escherichia coli […] expressed in Escherichia coli BL21 (DE3) assessed as reduction in PNP formation using beta-PNPG as substrate incubated for 30 mins.
Test [3] has as its system Escherichia coli. The test can be described thus: Inhibition of recombinant Escherichia coli […] expressed in Escherichia coli BL21(DE3) assessed as reduction in PNP formation at 10 uM using beta-PNPG as substrate incubated for 30 mins relative to control.
The test system of test [4] is Saccharomyces cerevisiae. The experiment in a line: Inhibition of Saccharomyces cerevisiae alpha-glucosidase assessed as reduction in PNP formation at 10 uM using alpha-PNPG as substrate incubated for 30 mins relative to control.
Test [5] can be described thus: Uncompetitive inhibition of recombinant Escherichia coli […] expressed in Escherichia coli […] using beta-PNPG as substrate incubated for 30 mins by Lineweaver-Burk plot analysis.
The subject of the next test is L02. The experiment in a line: Cytotoxicity against human L02 cells assessed as reduction in cell viability incubated for 48 hrs by CCK8 assay. Format: cell-based. As to conditions: L02, 48 h. On the technique in general: Tetrazolium assays rely on reduction of a dye to a coloured formazan, in cell work by metabolically active cells.
Test [6] concerns Escherichia coli. The test can be described thus: Potency index, ratio of DSL IC50 to test compound IC50 for inhibition of Escherichia coli […] expressed in Escherichia coli BL21 (DE3) assessed as reduction in PNP formation using beta-PNPG as substrate incubated for 30 mins.
Test [7] can be described thus: Competitive inhibition of Saccharomyces cerevisiae alpha-glucosidase using alpha-PNPG as substrate incubated for 30 mins by Lineweaver-Burk plot analysis.
For test [8], the system named is Saccharomyces cerevisiae. The test can be described thus: Potency index, ratio of ACAR IC50 to test compound IC50 for inhibition of Saccharomyces cerevisiae alpha-glucosidase assessed as reduction in PNP formation using alpha-PNPG as substrate incubated for 30 mins.
A short description of test [9]: Mixed inhibition of recombinant Escherichia coli […] expressed in Escherichia coli BL21(DE3) using beta-PNPG as substrate incubated for 30 mins by Lineweaver-Burk plot analysis.

Some results are limits rather than exact numbers.

On to `O=C(Sc1nncs1)c1ccc(-c2cccc(F)c2)o1`, for which the IC50 (usually the point on the concentration scale where inhibition reaches its midpoint) came out at 646 nM in test [1] and 425 nM in [2]. The inhibition (as a rule, the change of the read-out against control, counted positive when it falls) came out at 95.9% with Escherichia coli [3] and 82.6% with Saccharomyces cerevisiae [4].

With `COc1ccc(-c2ccc(C(=O)Sc3nnc(C)s3)o2)cc1`, in [2], the 50% inhibitory concentration (IC50) worked out at 303 nM. The inhibition in the test on Escherichia coli [3] amounted to 87.5%; in the test with Saccharomyces cerevisiae [4] it was 33.1%.

Turning to `Cc1nnc(SC(=O)c2ccc(-c3cccc(F)c3)o2)s1`, the Ki (commonly a measure of affinity in units of concentration, obtained from inhibition or displacement) in test [5] is 60 nM. Also, the concentration for half-maximal inhibition (IC50) in [1] is 2950 nM; in [2], 82 nM; with L02 it was 86200 nM. For the same molecule, the values for the inhibition in the test with Escherichia coli [3] and with Saccharomyces cerevisiae [4] were 91.7% and 59.1%, respectively. In the test with Escherichia coli [6], the Ratio IC50 was 820.

On to `Cc1nnc(SC(=O)c2ccc(-c3ccc(Br)cc3)o2)s1`, for which the IC50 is 11000 nM in test [1] and 755 nM in test [2]. For the same molecule, the inhibition in the test with Escherichia coli [3] was 82.7%; with Saccharomyces cerevisiae [4], 50.8%.

In the case of `O=C(Sc1nncs1)c1ccc(-c2ccc(F)cc2)o1`, the concentration for half-maximal inhibition (IC50) in [1] worked out at 652 nM; in [2], 526 nM. The inhibition in the test with Escherichia coli [3] was 94.4%; in the test with Saccharomyces cerevisiae [4], 76.5%.

With `Cc1nnc(SC(=O)c2ccc(-c3cccc([N+](=O)[O-])c3)o2)s1`, the IC50 in test [2] was determined as 1200 nM. Further, the inhibition is 92.5% in the test with Escherichia coli [3] and 20.1% in the test with Saccharomyces cerevisiae [4].

Turning to `O=C(Sc1nncs1)c1ccc(-c2c(F)cccc2F)o1`, the concentration for half-maximal inhibition (IC50) worked out at 903 nM in test [1] and 849 nM in [2]. Moreover, the inhibition was 92.9% in the test on Escherichia coli [3] and 81.6% in the test with Saccharomyces cerevisiae [4].

Turning to `Cc1nnc(SC(=O)c2ccc(-c3cccc(Cl)c3)o2)s1`, the IC50 in test [1] stood at 728 nM; in test [2], 551 nM. Moreover, the inhibition in the test with Escherichia coli [3] stood at 99.6%; with Saccharomyces cerevisiae [4] it was 82.5%.

In the case of `O=C(Sc1nncs1)c1ccc(-c2ccc([N+](=O)[O-])cc2)o1`, in test [1], the 50% inhibitory concentration (IC50) came to 1810 nM. The inhibition in the test with Saccharomyces cerevisiae [4] came to 75.1%.

As to `Cc1nnc(SC(=O)c2ccc(-c3ccc(Cl)cc3)o2)s1`, the concentration for half-maximal inhibition (IC50) in [2] worked out at 695 nM. The results for the inhibition in the test with Escherichia coli [3] and in the test on Saccharomyces cerevisiae [4] were 77.8% and 48.8%, respectively.

As to `O=C(Sc1nncs1)c1ccc(-c2ccccc2F)o1`, the IC50 was 1670 nM in test [1] and 1140 nM in test [2]. The inhibition with Escherichia coli [3] worked out at 87.8%; in the test with Saccharomyces cerevisiae [4] it was 82.5%.

Take `Cc1ccc(-c2ccc(C(=O)Sc3nncs3)o2)cc1`: the half-inhibitory concentration (IC50) came to 286 nM in [1] and 312 nM in test [2]. In addition, the inhibition in the test with Escherichia coli [3] was 90.1%; in the test with Saccharomyces cerevisiae [4], 78.2%.

`Cc1nnc(SC(=O)c2ccc(-c3ccccc3Cl)o2)s1`: the IC50 was found to be 774 nM in [1] and 230 nM in test [2]. The inhibition with Escherichia coli [3] is 100%; with Saccharomyces cerevisiae [4], 94.1%.

For the molecule `Cc1nnc(SC(=O)c2ccc(-c3ccccc3F)o2)s1`, the IC50 in [1] is 2740 nM; in test [2], 307 nM. The inhibition with Escherichia coli [3] is 96.6%; in the test with Saccharomyces cerevisiae [4], 69.9%.

Take `O=C(Sc1nncs1)c1ccc(-c2ccc(Br)cc2)o1`: the concentration for half-maximal inhibition (IC50) is 526 nM in test [1] and 379 nM in [2]. Further, the inhibition with Escherichia coli [3] was 76.4%; with Saccharomyces cerevisiae [4], 66.7%.

With `Clc1ccc2c(c1)C(N1CCNCC1)=Nc1ccccc1O2` [AMOXAPINE], the Ki in test [5] came to 50 nM. Further, the 50% inhibitory concentration (IC50) in test [2] stood at 83 nM. Further, the inhibition in the test with Escherichia coli [3] was 99.8%.

As for `Cc1nnc(SC(=O)c2ccc(-c3c(F)cccc3F)o2)s1`, the half-maximal inhibitory concentration (IC50) in [1] came out at 863 nM; in test [2], 415 nM. In addition, the values for the inhibition in the test with Escherichia coli [3] and in the test on Saccharomyces cerevisiae [4] were 96.1% and 90.8%, respectively.

Consider `O=C(Sc1nncs1)c1ccc(-c2cccc(Cl)c2)o1`, for which the IC50 is 680 nM in test [1] and 148 nM in test [2]. Further, the inhibition was 83.8% with Escherichia coli [3] and 77.1% in the test with Saccharomyces cerevisiae [4].

Regarding `Cc1nnc(SC(=O)c2ccc(-c3ccc([N+](=O)[O-])cc3)o2)s1`, the IC50 turned out to be 2500 nM in [1] and 247 nM in [2]. The results for the inhibition with Escherichia coli [3] and with Saccharomyces cerevisiae [4] were 92.9% and 62.9%, respectively.

As to `O=C(Sc1nncs1)c1ccc(-c2ccc(Cl)cc2)o1`, the figures for the IC50 (in [1]; in [2]; with L02) were 186 nM, 2080 nM and 83300 nM, respectively. The inhibition came to 92% in the test with Escherichia coli [3] and 68.9% in the test with Saccharomyces cerevisiae [4]. In test [7], this molecule displayed an inhibition constant Ki of 50 nM. Further, the Ratio IC50 in the test on Saccharomyces cerevisiae [8] turned out to be 2800.

In the case of `O=C(Sc1nncs1)c1ccc(-c2ccccc2[N+](=O)[O-])o1`, the half-maximal inhibitory concentration (IC50) in test [1] is 223 nM; in [2], 341 nM; with L02, more than 100000 nM. The figures for the inhibition with Escherichia coli [3] and in the test on Saccharomyces cerevisiae [4] were 90.5% and 95.7%, respectively.

Consider `O=C(Sc1nncs1)c1ccc(-c2ccccc2Cl)o1`, for which the IC50 worked out at 1350 nM in test [1] and 5370 nM in [2]. Also, the figures for the inhibition in the test with Escherichia coli [3] and in the test with Saccharomyces cerevisiae [4] were 88.1% and 82.1%, respectively.

Turning to `Cc1ccc(-c2ccc(C(=O)Sc3nnc(C)s3)o2)cc1`, in [2], the IC50 was found to be 508 nM. The inhibition was 85.7% with Escherichia coli [3] and 44.4% with Saccharomyces cerevisiae [4].

Consider `Cc1nnc(SC(=O)c2ccc(-c3ccccc3)o2)s1`, for which the values for the IC50 in test [1] and in test [2] were 823 nM and 923 nM, respectively. Further, the inhibition is 95.9% in the test with Escherichia coli [3] and 73% in the test on Saccharomyces cerevisiae [4].

As for `C[C@H]1O[C@H](O[C@H]2[C@H](O)[C@@H](O)[C@@H](O[C@H]3[C@H](O)[C@@H](O)C(O)O[C@@H]3CO)O[C@@H]2CO)[C@H](O)[C@@H](O)[C@@H]1N[C@H]1C=C(CO)[C@@H](O)[C@H](O)[C@H]1O` (stereo not given in full) [ACARBOSE], in test [1], the IC50 was 517000 nM. The molecule further gave an inhibition constant Ki in [7] of 378000 nM. Besides, the inhibition with Saccharomyces cerevisiae [4] was determined as 11.1%.

Take `Cc1nnc(SC(=O)c2ccc(-c3ccc(F)cc3F)o2)s1`: the IC50 in test [1] was found to be 1940 nM; in test [2] it was 357 nM. In addition, the inhibition in the test with Escherichia coli [3] stood at 86.7%; in the test with Saccharomyces cerevisiae [4], 65.8%.

In the case of `Cc1nnc(SC(=O)c2ccc(-c3ccc(F)cc3)o2)s1`, the values for the IC50 in test [1] and in test [2] were 1850 nM and 796 nM, respectively. In addition, the inhibition in the test on Escherichia coli [3] amounted to 78.8%; in the test on Saccharomyces cerevisiae [4] it was 58.7%.

Take `Cc1nnc(SC(=O)c2ccc(-c3ccccc3[N+](=O)[O-])o2)s1`: the figures for the IC50 in test [1] and in [2] were 658 nM and 564 nM, respectively. Moreover, the inhibition in the test with Escherichia coli [3] came out at 98.5%; in the test with Saccharomyces cerevisiae [4], 81.6%.

`O=C(O)[C@@H](O)[C@H]1OC(=O)[C@H](O)[C@H]1O` [D-SACCHARIC ACID 1,4-LACTONE]: in test [2], the IC50 was 67300 nM. For the same molecule, in the test on Escherichia coli [3], the inhibition was 11.6%. The Ki in [9] came to 30900 nM.

Turning to `O=C(Sc1nncs1)c1ccc(-c2ccccc2)o1`, the IC50 was found to be 613 nM in test [1] and 1130 nM in test [2]. The results for the inhibition in the test on Escherichia coli [3] and in the test with Saccharomyces cerevisiae [4] were 105% and 79.5%, respectively.

For `O=C(Sc1nncs1)c1ccc(-c2cccc([N+](=O)[O-])c2)o1`, the IC50 in test [1] stood at 1570 nM; in [2], 212 nM. Further, the values for the inhibition in the test on Escherichia coli [3] and in the test with Saccharomyces cerevisiae [4] were 74.6% and 79.6%, respectively.

In the case of `O=C(Sc1nncs1)c1ccc(-c2ccc(F)cc2F)o1`, the IC50 came out at 1140 nM in test [1] and 1260 nM in test [2]. Also, the figures for the inhibition in the test with Escherichia coli [3] and with Saccharomyces cerevisiae [4] were 76.4% and 71%, respectively.

Consider `COc1ccc(-c2ccc(C(=O)Sc3nncs3)o2)cc1`, for which the values for the concentration for half-maximal inhibition (IC50) in [1] and in [2] were 239 nM and 533 nM, respectively. Further, the inhibition in the test with Escherichia coli [3] came out at 93%; in the test with Saccharomyces cerevisiae [4] it was 74.4%.

These data come from ChEMBL document CHEMBL4813964, “2,5-Disubstituted furan derivatives containing 1,3,4-thiadiazole moiety as potent α-glucosidase and E. coli β-glucuronidase inhibitors” (Eur J Med Chem, 2021).
